According to ChEMBL document CHEMBL1201862, “PubChem BioAssay data set” (2004):
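Method: 48-hour compound exposure of cells in 96-well plates, five concentrations, linear interpolation of endpoints. At the GI50, growth is halved.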 Active and inactive are the calls of the source. No stated cut-off is given here; in the data, active = GI50 up to about 1.1 µM and inactive = higher.

Legend:
Assay in all cases: DTP human tumour cell line panel, 48 h
CCRF-CEM = system: CCRF-CEM
XF498 = system: XF498
U-251 = system: U-251
HCC 2998 = system: HCC 2998
LOX IMVI = system: LOX IMVI
RPMI-8226 = system: RPMI-8226
DLD-1 = system: DLD-1
RXF 393 = system: RXF 393
SK-MEL-28 = system: SK-MEL-28
HCT-15 = system: HCT-15
KM-20L2 = system: KM-20L2
OVCAR-5 = system: OVCAR-5
Malme-3M = system: Malme-3M
HCT-116 = system: HCT-116
SNB-75 = system: SNB-75
LXFL 529 = system: LXFL 529
NCI-H23 = system: NCI-H23
SR = system: SR
K562 = system: K562
NCI-H522 = system: NCI-H522

Measured: GI50

COc1cc(/C=C(\C#N)C(N)=O)cc(Br)c1O
> 100 µM: HCT-15
inactive: CCRF-CEM > 100 µM | XF498 23.2 µM | U-251 > 100 µM | HCC 2998 > 100 µM | LOX IMVI 29.7 µM | RPMI-8226 70 µM | DLD-1 92 µM | RXF 393 > 100 µM | SK-MEL-28 > 100 µM | KM-20L2 > 100 µM | OVCAR-5 > 100 µM | Malme-3M > 100 µM | HCT-116 > 100 µM

C/C=C/c1cc(=O)c([C@@H]2OC(=O)c3cc(OC)cc(OC)c32)co1 [VERMISTATIN]
inactive: CCRF-CEM 24.1 µM | HCC 2998 26 µM | SNB-75 6.49 µM | RPMI-8226 35.4 µM | RXF 393 42.2 µM | SK-MEL-28 25.3 µM | KM-20L2 67.5 µM | LXFL 529 24.5 µM | NCI-H23 29.6 µM | SR 27.6 µM | K562 33.8 µM | HCT-116 23.7 µM

CC1SC(c2ccccc2)N(Nc2c3ccccc3nc3ccccc23)C1=O (stereo not drawn)
inactive: CCRF-CEM 69.8 µM | XF498 > 100 µM | U-251 > 100 µM | HCC 2998 > 100 µM | SNB-75 34.6 µM | LOX IMVI 89.1 µM | RPMI-8226 58.7 µM | DLD-1 59.2 µM | SK-MEL-28 > 100 µM | KM-20L2 > 100 µM | LXFL 529 43.3 µM | NCI-H23 50.4 µM | NCI-H522 40 µM | OVCAR-5 78.7 µM | SR 42.6 µM | Malme-3M > 100 µM | K562 40.6 µM | HCT-116 75.3 µM
51.8 µM: HCT-15

CCCCN1C=CN2c3nc4cc(C)c(C)cc4n3C(C(=O)OC)=C(C(=O)OC)C12 (stereo not drawn)
inactive: CCRF-CEM > 100 µM | XF498 > 100 µM | U-251 > 100 µM | HCC 2998 > 100 µM | SNB-75 > 100 µM | LOX IMVI > 100 µM | RPMI-8226 > 100 µM | DLD-1 > 100 µM | RXF 393 > 100 µM | KM-20L2 > 100 µM | LXFL 529 > 100 µM | NCI-H23 > 100 µM | NCI-H522 > 100 µM | OVCAR-5 > 100 µM | SR > 100 µM | Malme-3M > 100 µM | K562 > 100 µM | HCT-116 > 100 µM
> 100 µM: HCT-15

CCCCCCCCCCCCCCCCCC(=O)OCC1OC(OC)C(NC(=O)N(CCCl)N=O)C(O)C1O (stereo not drawn)
36.1 µM: HCT-15
inactive: XF498 20.7 µM | U-251 > 10 µM | HCC 2998 29 µM | SNB-75 13.8 µM | LOX IMVI 13.6 µM | RPMI-8226 20.3 µM | DLD-1 28.1 µM | RXF 393 17 µM | SK-MEL-28 21.6 µM | KM-20L2 > 10 µM | LXFL 529 17.3 µM | NCI-H23 16.4 µM | NCI-H522 17.1 µM | OVCAR-5 44.2 µM | SR 9.04 µM | Malme-3M 26.1 µM | K562 24.6 µM

COC(=O)C1=C(OC(=O)/C(=C/c2ccc(Cl)cc2)c2ccc(Cl)cc2)C(C(=O)OC)[C@]2(O)[C@@H](C(=O)OC)[C@H]1C[C@@H](c1ccccc1)[C@@H]2C(=O)OC (stereo partly drawn)
> 100 µM: HCT-15
inactive: U-251 26.5 µM | SNB-75 > 100 µM | LOX IMVI > 100 µM | RXF 393 > 100 µM | SK-MEL-28 > 100 µM | NCI-H23 > 100 µM | NCI-H522 3.85 µM | OVCAR-5 > 100 µM | K562 91.6 µM | HCT-116 > 100 µM
